Results published in patent publication US20060100431A1, “Biologically active compounds” (Amura Therapeutics Limited, priority 2002, published 2006).
pKi: −log10 of the molar value.

Tests used:
Type in all cases: biochemical
[1] = target: Wild-type cruzipain (Trypanosoma cruzi, UniProt P25779); test: Trypanosoma cruzi cruzipain peptidase activity assay (Ki); conditions: read-out: Ki, inhibitors of cruzain and cruzipains
How it was run: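 Native cruzipain from T. cruzi Dm28 epimastigotes, 2.5 nM, in 100 mM sodium phosphate pH 6.75 with 1 mM EDTA and 10 mM L-cysteine, 25 °C, DMSO <1%. Rates taken from continuous fluorogenic substrate read; Ki by regression assuming reversible pure-competitive inhibition.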

[2] = target: T1, human cathepsin B (Homo sapiens, UniProt P07858); test: Cathepsin B peptidase activity assay (Ki); conditions: read-out: Ki, inhibitors of cathepsin B
T1 construct: purchased CN Biosciences
Protocol: Unless otherwise stated, all general chemicals and biochemicals were purchased from either the Sigma Chemical Company, Poole, Dorset, U.K or from Fisher Scientific UK, Loughborough, Leicestershire, U.K. Absorbance assays were carried out in flat-bottomed 96-well plates (Spectra; Greiner Bio-One Ltd., Stonehouse, Gloucestershire, U.K.) using a SpectraMax PLUS384 plate reader (Molecular Devices, Crawley, U.K.). […] Fluorescence assays were monitored using a SpectraMax Gemini fluorescence plate reader (Molecular Devices). For substrates employing either a 7-amino-4-methylcoumarin (AMC) or a 7-amino-4-trifluoromethylcoumarin (AFC) fluorophore, assays were monitored at an excitation wavelength of 365 nm and an emission wavelength of 450 nm and the fluorescence plate reader calibrated with AMC. For substrates employing a 3-amino-benzoyl (Abz) fluorophore, assays were monitored at an excitation wavelength of 310 nm and an emission wavelength of 445 nm; the fluorescence plate reader calibrated with 3-amino-benzamide (Fluka). Unless otherwise indicated, all the peptidase substrates were purchased from Bachem UK, St Helens, Merseyside, UK. […] Hydroxyethylpiperazine ethanesulfonate (HEPES), tris-hydroxylmethyl aminomethane (tris) base, bis-tris-propane and all the biological detergents (e.g. CHAPS, zwittergents, etc.) were purchased from CN Biosciences UK, Beeston, Nottinghamshire, U.K. Glycerol was purchased from Amersham Pharmacia Biotech, Little Chalfont, Buckinghamshire, U.K. Stock solutions of substrate or inhibitor were made up to 10 mM in 100% dimethylsulfoxide (DMSO) (Rathburns, Glasgow, U.K.) and diluted as appropriately required. In all cases the DMSO concentration in the assays was maintained at less than 1% (vol./vol.).
Enzyme was added as required to initiate the reaction and the activity, as judged by the change in fluorescence upon conversion of substrate to product, was monitored over time. All assays were carried out at 25±1° C.
Bovine cathepsin S, human cathepsin L, human cathepsin H and human cathepsin B were obtained from CN Biosciences. Recombinant human cathepsin S, human cathepsin K and human cathepsin X were obtained from Dr. Boris Turk (Josef Stefan Institute, Ljubljana, Slovenia). Unless otherwise stated, all peptidase activity assays were carried out in 10 mM bis-tris-propane (BTP), pH 6.5 containing 1 mM EDTA, 5 mM 2-mercaptoethanol and 1 mM CaCl2.
The apparent inhibition constant (Ki) for each compound was determined on the basis that inhibition was reversible and occurred by a pure-competitive mechanism. […] [formula]
[formula] Ki^app=Ki(1+[So]/KM^app) (4)
Curves were fitted by non-linear regression analysis (Prism) using a fixed value for the enzyme concentration.

[3] = target: T2, CPB2.8ΔCTE (Leishmania mexicana, UniProt P36400); test: Leishmania mexicana cysteine protease B (CPB) peptidase activity assay (Ki); conditions: Ki, inhibitors of Leismania mexicana CPB protease
T2 construct: Wild-type recombinant CPB without the C-terminal extention (i.e. CPB2.8ΔCTE); Dr. Jeremy Mottram (Wellcome Centre for Molecular Parasitology, University of Glasgow)
T2 sequence (P36400 126-343, stated change not applied): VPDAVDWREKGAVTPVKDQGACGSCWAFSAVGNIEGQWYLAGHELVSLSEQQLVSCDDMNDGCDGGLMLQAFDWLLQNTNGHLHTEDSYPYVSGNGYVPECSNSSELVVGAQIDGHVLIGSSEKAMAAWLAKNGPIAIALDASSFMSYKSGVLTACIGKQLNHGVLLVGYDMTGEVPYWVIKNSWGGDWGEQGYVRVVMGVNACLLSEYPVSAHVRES
How it was run: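 Apparent Ki was derived by regression of activity against inhibitor concentration, assuming pure-competitive reversible binding. Reaction: 0.25 nM CPB lacking the C-terminal extension, pH 5.5 acetate buffer (1 mM EDTA, 200 mM NaCl, 10 mM DTT), 25 °C, followed by continuous substrate fluorescence.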

Wild-type cruzipain, sequence (P25779 whole entry): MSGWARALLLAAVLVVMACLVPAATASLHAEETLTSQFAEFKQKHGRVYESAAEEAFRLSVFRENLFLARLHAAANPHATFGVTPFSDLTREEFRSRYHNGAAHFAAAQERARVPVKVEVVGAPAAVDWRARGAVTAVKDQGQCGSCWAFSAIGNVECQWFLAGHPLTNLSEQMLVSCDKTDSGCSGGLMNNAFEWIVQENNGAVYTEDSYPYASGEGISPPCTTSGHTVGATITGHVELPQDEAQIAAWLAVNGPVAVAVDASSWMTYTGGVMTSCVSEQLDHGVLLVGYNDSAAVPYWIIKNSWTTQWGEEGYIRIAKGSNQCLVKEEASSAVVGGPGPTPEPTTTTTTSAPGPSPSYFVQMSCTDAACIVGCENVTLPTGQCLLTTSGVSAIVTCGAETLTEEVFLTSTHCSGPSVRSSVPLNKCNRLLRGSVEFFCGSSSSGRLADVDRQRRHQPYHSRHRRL

SMILES	pKi [1]	pKi [2]	pKi [3]
CC(C)C[C@H](NC(=O)c1ccc(C(C)(C)C)cc1)C(=O)N1CC[C@@H]2[C@H]1C(=O)CN2C(=O)c1csc(-c2ccccc2)n1 [Example 27, (3aR,6aS)-4-tert-Butyl-N-{(1S)-3-methyl-1-[6-oxo-4-(2-phenyl-thiazole-4-carbonyl)-hexahydro-pyrrolo[3,2-b]pyrrole-1-carbonyl]-butyl}-benzamide]	> 5.30	> 5.30	> 5.30
CC(C)C[C@H](NC(=O)c1ccc(C(C)(C)C)cc1)C(=O)N1CC[C@@H]2[C@H]1C(=O)CN2C(=O)c1ccc2ccccc2c1 [Example 34, (3aR,6aS)-4-tert-Butyl-N-{(1S)-3-methyl-1-[4-(naphthalene-2-carbonyl)-6-oxo-hexahydro-pyrrolo[3,2-b]pyrrole-1-carbonyl]-butyl}-benzamide]	> 5.30	> 5.30	> 5.30
CC(C)C[C@H](NC(=O)c1ccc(C(C)(C)C)cc1)C(=O)N1CC[C@@H]2[C@H]1C(=O)CN2C(=O)c1cncc(-c2cccs2)c1 [Example 35, (3aR,6aS)-4-tert-Butyl-N-{(1S)-3-methyl-1-[6-oxo-4-(5-thiophen-2-yl-pyridine-3-carbonyl)-hexahydro-pyrrolo[3,2-b]pyrrole-1-carbonyl]-butyl}-benzamide]	> 5.30	> 5.30	> 5.30
CC(C)C[C@H](NC(=O)c1ccc(N(C)C)cc1)C(=O)N1CC[C@@H]2[C@H]1C(=O)CN2C(=O)c1cccc(S(C)(=O)=O)c1 [Example 43, (3aR,6aS)-4-Dimethylamino-N-{(1S)-1-[4-(3-methanesulfonyl-benzoyl)-6-oxo-hexahydro-pyrrolo[3,2-b]pyrrole-1-carbonyl]-3-methyl-butyl}-benzamide]	> 5.30	> 5.30	> 5.30
CC(C)C[C@H](NC(=O)c1ccc(N(C)C)cc1)C(=O)N1CC[C@@H]2[C@H]1C(=O)CN2C(=O)c1cccc([N+](=O)[O-])c1 [Example 46, (3aR,6aS)-4-Dimethylamino-N-{(1S)-3-methyl-1-[4-(3-nitro-benzoyl)-6-oxo-hexahydro-pyrrolo[3,2-b]pyrrole-1-carbonyl]-butyl}-benzamide]	> 5.30	> 5.30	> 5.30
CC(C)C[C@H](NC(=O)c1ccc(N(C)C)cc1)C(=O)N1CC[C@@H]2[C@H]1C(=O)CN2C(=O)C12CC3CC(CC(C3)C1)C2 [Example 48, (3aR,6aS)-N-{(1S)-1-[4-(Adamantane-1-carbonyl)-6-oxo-hexahydro-pyrrolo[3,2-b]pyrrole-1-carbonyl]-3-methyl-butyl}-4-dimethylamino-benzamide]	> 5.30	> 5.30	> 5.30
CC(C)C[C@H](NC(=O)c1ccc(N(C)C)cc1)C(=O)N1CC[C@@H]2[C@H]1C(=O)CN2C(=O)c1ccc(F)cc1 [Example 57, (3aR,6aS)-4-Dimethylamino-N-{(1S)-1-[4-(4-fluoro-benzoyl)-6-oxo-hexahydro-pyrrolo[3,2-b]pyrrole-1-carbonyl]-3-methyl-butyl}-benzamide]		> 5.30	> 5.30
CCN(CC)c1ccc(C(=O)N[C@@H](CC(C)C)C(=O)N2CC[C@@H]3[C@H]2C(=O)CN3C(=O)c2cccc(S(C)(=O)=O)c2)cc1 [Example 60, (3aR,6aS)-4-Diethylamino-N-{(1S)-1-[4-(3-methanesulfonyl-benzoyl)-6-oxo-hexahydro-pyrrolo[3,2-b]pyrrole-1-carbonyl]-3-methyl-butyl}-benzamide]	> 5.30	> 5.30	> 5.30
CC(C)C[C@H](NC(=O)c1ccc(N(C)C)cc1)C(=O)N1CC[C@@H]2[C@H]1C(=O)CN2C(=O)c1ccc(Cl)cc1 [Example 74, (3aR,6aS)-N-{(1S)-1-[4-(4-Chloro-benzoyl)-6-oxo-hexahydro-pyrrolo[3,2-b]pyrrole-1-carbonyl]-3-methyl-butyl}-4-dimethylamino-benzamide]	> 5.30	> 5.30	> 5.30
O=C(N[C@@H](Cc1ccc(O)cc1)C(=O)N1CC[C@@H]2[C@H]1C(=O)CN2C(=O)c1ccccc1)c1cc2ccccc2s1 [Example 300, (3aR,6aS)-Benzo[b]thiophene-2-carboxylic acid [(1S)-2-(4-benzoyl-6-oxo-hexahydro-pyrrolo[3,2-b]pyrrole-1-yl)-1-(4-hydroxy-benzyl)-2-oxo-ethyl]-amide]	> 5.30	> 5.30	
O=C(N[C@@H](Cc1ccc(O)cc1)C(=O)N1CC[C@@H]2[C@H]1C(=O)CN2C(=O)c1cccc2ccccc12)c1cccc2ccccc12 [Example 301, (3aR,6aS)-Naphthalene-1-carboxylic acid {(1S)-1-(4-hydroxy-benzyl)-2-[4-(naphthalene-1-carbonyl)-6-oxo-hexahydro-pyrrolo[3,2-b]pyrrol-1-yl]-2-oxo-ethyl}-amide]	> 5.30	> 5.30	
CS(=O)(=O)c1cccc(C(=O)N2CC(=O)[C@@H]3[C@H]2CCN3C(=O)[C@H](Cc2ccc(O)cc2)NC(=O)c2cccc(Br)c2)c1 [Example 304, (3aR,6aS)-3-Bromo-N-{(1S)-1-(4-hydroxy-benzyl)-2-[4-(3-methanesulfonyl-benzoyl)-6-oxo-hexahydro-pyrrolo[3,2-b]pyrrole-1-yl]-2-oxo-ethyl}-benzamide]	> 5.30	> 5.30	
O=C(N[C@@H](Cc1ccc(O)cc1)C(=O)N1CC[C@@H]2[C@H]1C(=O)CN2C(=O)c1cccc([N+](=O)[O-])c1)c1cccc(Br)c1 [Example 305, (3aR,6aS)-3-Bromo-N-{(1S)-1-(4-hydroxy-benzyl)-2-[4-(3-nitro-benzoyl)-6-oxo-hexahydro-pyrrolo[3,2-b]pyrrole-1-yl]-2-oxo-ethyl}-benzamide]	> 5.30	> 5.30	
O=C(N[C@@H](Cc1ccc(O)cc1)C(=O)N1CC[C@@H]2[C@H]1C(=O)CN2C(=O)C12CC3CC(CC(C3)C1)C2)c1cccc(Br)c1 [Example 307, (3aR,6aS)-N-[(1S)-2-[4-(Adamantane-1-carbonyl)-6-oxo-hexa hydro-pyrrolo[3,2-b]pyrrole-1-yl)-1-(4-hydroxy-benzyl)-2-oxo-ethyl]-3-bromo-benzamide]	> 5.30	> 5.30	
O=C(N[C@@H](Cc1ccc(O)cc1)C(=O)N1CC[C@@H]2[C@H]1C(=O)CN2C(=O)C12CC3CC(CC1C3)C2)c1cccc(Br)c1 [Example 308, (3aR,6aS)-3-Bromo-N-[(1S)-2-[4-(hexahydro-2,5-methano-pentalene-3a-carbonyl)-6-oxo-hexahydro-pyrrolo[3,2-b]pyrrole-1-yl]-1-(4-hydroxy-benzyl)-2-oxo-ethyl]-benzamide]	> 5.30	> 5.30	
O=C(N[C@@H](Cc1ccc(O)cc1)C(=O)N1CC[C@@H]2[C@H]1C(=O)CN2C(=O)c1ccc(O)cc1)c1cccc(Br)c1 [Example 309, (3aR,6aS)-3-Bromo-N-[(1S)-2-[4-(4-hydroxy-benzoyl)-6-oxo-hexa hydro-pyrrolo[3,2-b]pyrrole-1-yl]-1-(4-hydroxy-benzyl)-2-oxo-ethyl]-benzamide]	> 5.30	> 5.30	
O=C(N[C@@H](Cc1ccc(O)cc1)C(=O)N1CC[C@@H]2[C@H]1C(=O)CN2C(=O)C1CCCCC1)c1cccc(Br)c1 [Example 325, (3aR,6aS)-3-Bromo-N-[(1S)-2-(4-cyclohexanecarbonyl-6-oxo-hexahydro-pyrrolo[3,2-b]pyrrole-1-yl)-1-(4-hydroxy-benzyl)-2-oxo-ethyl]-benzamide]	> 5.30	> 5.30	
Cc1cccc(C(=O)N2CC(=O)[C@@H]3[C@H]2CCN3C(=O)[C@H](Cc2ccc(O)cc2)NC(=O)c2cccc(Br)c2)c1 [Example 327, (3aR,6aS)-3-Bromo-N-{(1S)-1-(4-hydroxy-benzyl)-2-[4-(3-methyl-benzoyl)-6-oxo-hexahydro-pyrrolo[3,2-b]pyrrol-1-yl]-2-oxo-ethyl}-benzamide]	> 5.30	> 5.30	
